Results reported in ChEMBL document CHEMBL1201862, “PubChem BioAssay data set” (2004).
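Five concentrations, 48 hours, 96-well plates. GI50 marks 50% less growth.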 Activity calls are given as the source filed them. Cut-off read from the data, not from the text of the source: active = GI50 up to about 1.1 µM and inactive = higher.

Tests used:
Experiment in all cases: growth of human tumour cells (NCI), 48 h
HCT-116 = tested on: HCT-116
UO-31 = tested on: UO-31
SK-MEL-5 = tested on: SK-MEL-5
786-0 = tested on: 786-0
KM12 = tested on: KM12
RPMI-8226 = tested on: RPMI-8226
UACC-62 = tested on: UACC-62
IGROV-1 = tested on: IGROV-1
U-251 = tested on: U-251
SK-MEL-28 = tested on: SK-MEL-28
HT-29 = tested on: HT-29
ACHN = tested on: ACHN
SNB-19 = tested on: SNB-19
EKVX = tested on: EKVX
CAKI-1 = tested on: CAKI-1
OVCAR-8 = tested on: OVCAR-8
SN12C = tested on: SN12C
NCI-H23 = tested on: NCI-H23
SF-295 = tested on: SF-295
SNB-75 = tested on: SNB-75

Measured: GI50

CSc1nc2c(c(=O)n1C)N=C(c1ccc(Cl)cc1)CC(c1ccccc1)N2 (stereo not given)
inactive: HCT-116 27.2 µM | UO-31 24.5 µM | SK-MEL-5 19.5 µM | 786-0 31 µM | KM12 15.7 µM | RPMI-8226 22 µM | UACC-62 16.1 µM | IGROV-1 18.3 µM | U-251 40.8 µM | SK-MEL-28 47.8 µM | HT-29 15.6 µM | ACHN 19 µM | SNB-19 36.3 µM | EKVX 20.9 µM | CAKI-1 24.4 µM | OVCAR-8 27.8 µM | SN12C 18.7 µM | NCI-H23 24.1 µM | SF-295 21.3 µM | SNB-75 13.3 µM

COc1ccc(/C=c2/s/c(=C(\C#N)c3nc4ccccc4[nH]3)n(-c3ccccc3)c2=O)cc1
inactive: HCT-116 24.7 µM | UO-31 > 52.6 µM | SK-MEL-5 > 92.7 µM | 786-0 12.8 µM | KM12 56.6 µM | RPMI-8226 > 100 µM | UACC-62 > 28.3 µM | IGROV-1 > 54.5 µM | U-251 48.1 µM | SK-MEL-28 48.2 µM | HT-29 6.12 µM | ACHN > 82.4 µM | SNB-19 47.1 µM | EKVX > 69.3 µM | CAKI-1 > 69.3 µM | OVCAR-8 14.6 µM | SN12C > 80.2 µM | NCI-H23 22.6 µM | SF-295 15.3 µM | SNB-75 > 26.4 µM

C/C(CC(O)(C(F)(F)F)C(F)(F)F)=N/Nc1ccc([N+](=O)[O-])cc1[N+](=O)[O-]
inactive: HCT-116 1.75 µM | UO-31 2.32 µM | SK-MEL-5 1.68 µM | 786-0 3.5 µM | KM12 3.21 µM | RPMI-8226 1.56 µM | UACC-62 3.02 µM | IGROV-1 4.15 µM | U-251 2.67 µM | SK-MEL-28 3.27 µM | HT-29 2.69 µM | ACHN 2.56 µM | SNB-19 3.27 µM | EKVX 2.26 µM | CAKI-1 2.24 µM | OVCAR-8 3 µM | SN12C 3.7 µM | NCI-H23 2.46 µM | SF-295 4.1 µM | SNB-75 2.69 µM

CC(CO)(CO)N1C(=O)C2C3C=CC(C3)C2C1=O (stereo not given)
inactive: HCT-116 > 100 µM | UO-31 > 100 µM | SK-MEL-5 > 100 µM | 786-0 > 100 µM | KM12 > 100 µM | RPMI-8226 > 100 µM | UACC-62 > 100 µM | IGROV-1 > 100 µM | U-251 > 100 µM | SK-MEL-28 > 100 µM | HT-29 > 100 µM | ACHN > 100 µM | SNB-19 > 100 µM | EKVX > 100 µM | CAKI-1 > 100 µM | OVCAR-8 > 100 µM | SN12C > 100 µM | NCI-H23 > 100 µM | SF-295 > 100 µM | SNB-75 > 100 µM

CC(SC1=CC(=O)c2c(O)ccc(O)c2C1=O)C(=O)O (stereo not given)
inactive: HCT-116 31.2 µM | UO-31 > 47.3 µM | SK-MEL-5 > 61.5 µM | 786-0 23.9 µM | KM12 > 100 µM | RPMI-8226 > 52.8 µM | UACC-62 17.5 µM | IGROV-1 > 44.9 µM | U-251 > 42.1 µM | SK-MEL-28 > 55.1 µM | HT-29 41.7 µM | ACHN 26.7 µM | SNB-19 > 100 µM | EKVX > 100 µM | CAKI-1 27.4 µM | OVCAR-8 23.5 µM | SN12C > 48.2 µM | NCI-H23 > 56.4 µM | SF-295 > 100 µM | SNB-75 > 50.5 µM

C=C(C)COc1ccc2c(c1)CCC1C2CCC2(C)C(=O)/C(=N/O)CC12 (stereo not given)
inactive: HCT-116 1.52 µM | UO-31 3.9 µM | SK-MEL-5 8.11 µM | 786-0 2.86 µM | KM12 2.19 µM | RPMI-8226 2.39 µM | UACC-62 14.9 µM | IGROV-1 1.61 µM | U-251 4.09 µM | SK-MEL-28 17.2 µM | HT-29 1.31 µM | ACHN 3.12 µM | SNB-19 11.8 µM | EKVX 2.59 µM | CAKI-1 1.21 µM | OVCAR-8 6.92 µM | SN12C 3.13 µM | NCI-H23 3.21 µM | SF-295 4.37 µM | SNB-75 1.9 µM

CCCc1[nH]c2ccccc2c1-c1c(CCC)[nH]c2ccccc12
inactive: HCT-116 4.6 µM | UO-31 16.7 µM | SK-MEL-5 10.2 µM | 786-0 15.5 µM | KM12 16.6 µM | RPMI-8226 19.7 µM | UACC-62 13.3 µM | IGROV-1 12 µM | U-251 6.71 µM | SK-MEL-28 7.46 µM | HT-29 8.61 µM | ACHN 16.9 µM | SNB-19 13.5 µM | EKVX 16.8 µM | CAKI-1 18.6 µM | OVCAR-8 3.35 µM | SN12C 10.1 µM | NCI-H23 8.05 µM | SF-295 15.7 µM | SNB-75 19.4 µM

Cc1cccc(NC(=S)N/N=C2\C(=O)Nc3ccccc32)c1
inactive: HCT-116 44.9 µM | UO-31 63.2 µM | SK-MEL-5 23.3 µM | 786-0 59.4 µM | KM12 39 µM | RPMI-8226 > 100 µM | UACC-62 > 100 µM | IGROV-1 49.3 µM | U-251 61.8 µM | SK-MEL-28 16.1 µM | HT-29 > 100 µM | ACHN 43.1 µM | SNB-19 > 100 µM | EKVX 31.3 µM | CAKI-1 38.2 µM | OVCAR-8 > 100 µM | SN12C 91.4 µM | NCI-H23 > 100 µM | SF-295 56.9 µM | SNB-75 63.1 µM

COC(=O)C1(F)C(=O)NC(=O)NC1O (stereo not given)
inactive: HCT-116 50.8 µM | UO-31 59.4 µM | SK-MEL-5 > 100 µM | 786-0 > 100 µM | KM12 50.2 µM | RPMI-8226 > 100 µM | UACC-62 > 100 µM | IGROV-1 > 100 µM | U-251 > 100 µM | SK-MEL-28 > 100 µM | HT-29 > 66.5 µM | ACHN > 75 µM | SNB-19 > 100 µM | EKVX 99.8 µM | CAKI-1 97.9 µM | OVCAR-8 > 100 µM | SN12C > 100 µM | NCI-H23 > 100 µM | SF-295 > 100 µM | SNB-75 > 65 µM

COc1ccc2cc(CN3CCC(C4CCN(Cc5ccc6cc(OC)ccc6c5)CC4)CC3)ccc2c1
inactive: HCT-116 2.39 µM | UO-31 3.14 µM | SK-MEL-5 1.66 µM | 786-0 2.06 µM | KM12 2.43 µM | RPMI-8226 1.52 µM | UACC-62 1.97 µM | IGROV-1 8.77 µM | U-251 2.52 µM | SK-MEL-28 2.21 µM | HT-29 2.2 µM | ACHN 7.35 µM | SNB-19 3.2 µM | EKVX 11.9 µM | CAKI-1 2.73 µM | OVCAR-8 5.15 µM | SN12C 8.95 µM | NCI-H23 17.1 µM | SF-295 2.99 µM | SNB-75 4.45 µM
